Measurements from PubChem BioAssay (NCI).
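Five compound concentrations were applied to cells in 96-well plates for 48 hours; endpoints were derived by simple linear interpolation of the resulting dose-response curve. TGI marks complete inhibition of growth.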 Where a SMILES comes first, the peptide text is derived from it. The star is where a group is joined. Cbz = O=C(OCc1ccccc1)*; NHNH2 = NN*

What was measured:
Experiment in all cases: DTP human tumour cell line panel, 48 h
HOP-62 NSCLC = test system: HOP-62 NSCLC
SW-620 colon = test system: SW-620 colon
RXF 393 renal = test system: RXF 393 renal
M14 melanoma = test system: M14 melanoma
SF-268 CNS = test system: SF-268 CNS
HCT-15 colon = test system: HCT-15 colon
HCT-116 colon = test system: HCT-116 colon
A549 NSCLC = test system: A549 NSCLC
HL-60(TB) leukemia = test system: HL-60(TB) leukemia
SR leukemia = test system: SR leukemia
NCI-H23 lung = test system: NCI-H23 lung
SN12C renal = test system: SN12C renal
OVCAR-4 ovarian = test system: OVCAR-4 ovarian
RPMI-8226 leukemia = test system: RPMI-8226 leukemia
BT-549 breast = test system: BT-549 breast
OVCAR-3 ovarian = test system: OVCAR-3 ovarian
K-562 leukemia = test system: K-562 leukemia
CAKI-1 renal = test system: CAKI-1 renal
HOP-92 NSCLC = test system: HOP-92 NSCLC
KM12 colon = test system: KM12 colon
MOLT-4 leukemia = test system: MOLT-4 leukemia
SK-OV-3 ovarian = test system: SK-OV-3 ovarian
DU-145 prostate = test system: DU-145 prostate
SF-295 CNS = test system: SF-295 CNS
HT29 colon = test system: HT29 colon
SNB-19 CNS = test system: SNB-19 CNS
CCRF-CEM leukemia = test system: CCRF-CEM leukemia
MDA-MB-435 = test system: MDA-MB-435
NCI/ADR-RES ovarian = test system: NCI/ADR-RES ovarian
T-47D breast = test system: T-47D breast
IGROV1 ovarian = test system: IGROV1 ovarian
UO-31 renal = test system: UO-31 renal
MDA-N = test system: MDA-N
OVCAR-5 ovarian = test system: OVCAR-5 ovarian
SNB-75 CNS = test system: SNB-75 CNS
MALME-3M melanoma = test system: MALME-3M melanoma
COLO 205 colon = test system: COLO 205 colon
OVCAR-8 ovarian = test system: OVCAR-8 ovarian
EKVX NSCLC = test system: EKVX NSCLC
LOX IMVI melanoma = test system: LOX IMVI melanoma
786-0 renal = test system: 786-0 renal
HS 578T breast = test system: HS 578T breast
ACHN renal = test system: ACHN renal
HCC-2998 colon = test system: HCC-2998 colon
SF-539 CNS = test system: SF-539 CNS
SK-MEL-28 melanoma = test system: SK-MEL-28 melanoma
MDA-MB-231 breast = test system: MDA-MB-231 breast
UACC-62 melanoma = test system: UACC-62 melanoma
SK-MEL-2 melanoma = test system: SK-MEL-2 melanoma
NCI-H460 lung = test system: NCI-H460 lung
MCF7 breast = test system: MCF7 breast
SK-MEL-5 melanoma = test system: SK-MEL-5 melanoma
TK-10 renal = test system: TK-10 renal
UACC-257 melanoma = test system: UACC-257 melanoma
PC-3 prostate = test system: PC-3 prostate
U251 CNS = test system: U251 CNS

Measured: TGI

O=c1[nH]nc(-c2ccccc2)c2[nH]c(-c3ccccc3)cc12
not listed: ACHN renal | HCC-2998 colon | SF-539 CNS | SK-MEL-28 melanoma | MDA-MB-231 breast | UACC-62 melanoma | SK-MEL-2 melanoma | NCI-H460 lung | MCF7 breast | SK-MEL-5 melanoma | TK-10 renal | UACC-257 melanoma | PC-3 prostate | U251 CNS
> 100 µM: all other assays above

COC(=O)CC(NC(=O)OCc1ccccc1)C(=O)NC(CC(=O)OC)C(=O)NC(CC(=O)OC)C(=O)NC(CC(=O)OC)C(=O)NC(CC(=O)OC)C(=O)NC(CC(=O)OC)C(=O)NN (centres undefined) (Cbz-D(OMe)D(OMe)D(OMe)D(OMe)D(OMe)D(OMe)-NHNH2; configuration not given here)
not listed: RXF 393 renal | A549 NSCLC | NCI-H23 lung | OVCAR-3 ovarian | CAKI-1 renal | DU-145 prostate | NCI/ADR-RES ovarian | MALME-3M melanoma | EKVX NSCLC
> 100 µM: all other assays above
